Source: US20250064795A1, “METHODS OF TREATING CORONAVIRUS DISEASE AND COMPOUNDS FOR SAME” (Board of Supervisors of Louisiana State University and …, priority 2021, published 2025)
Read-outs that look alike come from different tables or passages of the source.

Assays:
[1] = conventional Topotecan therapy; cited from earlier work
[2] = cited from earlier work
[3] = in vitro; conditions: human
[4] = system: SARS-CoV-2 (USA-WA1/2020 Isolate); test: In vitro inhibition of SARS-CoV-2 in Calu-3 cells (immunostaining assay); assay type: cell-based

Row | Compound | dose-limiting toxicity [1] | plasma elimination half-life ([2]; in vivo) | time of peak plasma concentrations ([2]; oral administration) | CC50 [3] | inhibition of SARS-CoV-2 ([4]; Calu-3 cells, FIG. 1) | IC50 ([4]; Severe acute respiratory syndrome coronavirus 2, Calu-3 cells, 24 h pretreatment, MOI 0.005, 48 h after inoculation, FIG. 1, read-out: IC50 of inhibition of SARS-CoV-2) | IC50 ([4]; Severe acute respiratory syndrome coronavirus 2, replicate experiments, Calu-3 cells, FIG. 3 and FIG. 4B, read-out: IC50) | IC50 ([4]; Severe acute respiratory syndrome coronavirus 2, Calu-3)
1 | CC[C@@]1(O)C(=O)OCc2c1cc1n(c2=O)Cc2cc3c(CN(C)C)c(O)ccc3nc2-1 [Topotecan] | bone marrow suppression | 2 to 3 h | 1 to 2 h | 0.169 µM | Complete or near complete inhibition | 0.035 µM | 0.00936 µM | –
2 | CCC(CC)COC(=O)[C@H](C)N[P@](=O)(OC[C@H]1O[C@@](C#N)(c2ccc3c(N)ncnn23)[C@H](O)[C@@H]1O)Oc1ccccc1 [Remdesivir] | – | – | – | – | – | – | – | 0.116 µM
